# Results published in ChEMBL document CHEMBL2417434, “The first synthesis of natural disulfide bruguiesulfurol and biological evaluation of its derivatives as a novel scaffold for PTP1B inhibitors” (Bioorg Med Chem Lett, 2013).
# Key:
# [1] = molecular target: T1, Tyrosine-protein phosphatase non-receptor type 1 (Homo sapiens, UniProt P18031); assay: Inhibition of PTP1B (unknown origin)
# T1 sequence (P18031 whole entry): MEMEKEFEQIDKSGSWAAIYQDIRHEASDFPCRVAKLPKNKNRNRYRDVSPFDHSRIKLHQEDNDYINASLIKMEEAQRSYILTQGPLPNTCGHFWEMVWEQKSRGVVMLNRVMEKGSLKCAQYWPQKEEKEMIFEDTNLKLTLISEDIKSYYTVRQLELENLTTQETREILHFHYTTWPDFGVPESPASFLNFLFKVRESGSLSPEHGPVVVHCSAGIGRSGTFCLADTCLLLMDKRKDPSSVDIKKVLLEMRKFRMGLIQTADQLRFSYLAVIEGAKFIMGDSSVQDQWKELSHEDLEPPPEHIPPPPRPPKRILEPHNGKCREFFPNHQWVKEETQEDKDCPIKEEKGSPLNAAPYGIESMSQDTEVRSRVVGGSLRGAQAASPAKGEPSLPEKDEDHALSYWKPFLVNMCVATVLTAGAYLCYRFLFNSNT
# [2] = molecular target: Tyrosine-protein phosphatase non-receptor type 6 (Homo sapiens, UniProt P29350); assay: Inhibition of SHP1 (unknown origin)
# Tyrosine-protein phosphatase non-receptor type 6, sequence (P29350 whole entry): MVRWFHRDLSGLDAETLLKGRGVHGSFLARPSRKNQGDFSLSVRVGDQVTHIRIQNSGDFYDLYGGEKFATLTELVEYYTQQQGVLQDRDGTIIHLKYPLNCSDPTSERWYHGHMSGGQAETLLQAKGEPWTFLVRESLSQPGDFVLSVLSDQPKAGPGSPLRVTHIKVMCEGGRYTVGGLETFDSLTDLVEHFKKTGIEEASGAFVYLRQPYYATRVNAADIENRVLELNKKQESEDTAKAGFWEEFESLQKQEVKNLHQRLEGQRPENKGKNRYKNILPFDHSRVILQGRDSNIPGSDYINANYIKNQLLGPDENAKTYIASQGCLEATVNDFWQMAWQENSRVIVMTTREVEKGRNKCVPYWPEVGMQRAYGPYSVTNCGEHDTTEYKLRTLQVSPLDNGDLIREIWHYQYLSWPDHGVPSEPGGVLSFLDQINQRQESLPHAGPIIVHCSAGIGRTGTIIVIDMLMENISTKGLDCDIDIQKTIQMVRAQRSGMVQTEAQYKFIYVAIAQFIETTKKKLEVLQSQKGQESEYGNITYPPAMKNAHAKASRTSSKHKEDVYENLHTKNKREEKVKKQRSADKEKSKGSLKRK
# [3] = molecular target: Receptor-type tyrosine-protein phosphatase F (Homo sapiens, UniProt P10586); assay: Inhibition of LAR (unknown origin)
# Receptor-type tyrosine-protein phosphatase F, sequence (P10586 whole entry): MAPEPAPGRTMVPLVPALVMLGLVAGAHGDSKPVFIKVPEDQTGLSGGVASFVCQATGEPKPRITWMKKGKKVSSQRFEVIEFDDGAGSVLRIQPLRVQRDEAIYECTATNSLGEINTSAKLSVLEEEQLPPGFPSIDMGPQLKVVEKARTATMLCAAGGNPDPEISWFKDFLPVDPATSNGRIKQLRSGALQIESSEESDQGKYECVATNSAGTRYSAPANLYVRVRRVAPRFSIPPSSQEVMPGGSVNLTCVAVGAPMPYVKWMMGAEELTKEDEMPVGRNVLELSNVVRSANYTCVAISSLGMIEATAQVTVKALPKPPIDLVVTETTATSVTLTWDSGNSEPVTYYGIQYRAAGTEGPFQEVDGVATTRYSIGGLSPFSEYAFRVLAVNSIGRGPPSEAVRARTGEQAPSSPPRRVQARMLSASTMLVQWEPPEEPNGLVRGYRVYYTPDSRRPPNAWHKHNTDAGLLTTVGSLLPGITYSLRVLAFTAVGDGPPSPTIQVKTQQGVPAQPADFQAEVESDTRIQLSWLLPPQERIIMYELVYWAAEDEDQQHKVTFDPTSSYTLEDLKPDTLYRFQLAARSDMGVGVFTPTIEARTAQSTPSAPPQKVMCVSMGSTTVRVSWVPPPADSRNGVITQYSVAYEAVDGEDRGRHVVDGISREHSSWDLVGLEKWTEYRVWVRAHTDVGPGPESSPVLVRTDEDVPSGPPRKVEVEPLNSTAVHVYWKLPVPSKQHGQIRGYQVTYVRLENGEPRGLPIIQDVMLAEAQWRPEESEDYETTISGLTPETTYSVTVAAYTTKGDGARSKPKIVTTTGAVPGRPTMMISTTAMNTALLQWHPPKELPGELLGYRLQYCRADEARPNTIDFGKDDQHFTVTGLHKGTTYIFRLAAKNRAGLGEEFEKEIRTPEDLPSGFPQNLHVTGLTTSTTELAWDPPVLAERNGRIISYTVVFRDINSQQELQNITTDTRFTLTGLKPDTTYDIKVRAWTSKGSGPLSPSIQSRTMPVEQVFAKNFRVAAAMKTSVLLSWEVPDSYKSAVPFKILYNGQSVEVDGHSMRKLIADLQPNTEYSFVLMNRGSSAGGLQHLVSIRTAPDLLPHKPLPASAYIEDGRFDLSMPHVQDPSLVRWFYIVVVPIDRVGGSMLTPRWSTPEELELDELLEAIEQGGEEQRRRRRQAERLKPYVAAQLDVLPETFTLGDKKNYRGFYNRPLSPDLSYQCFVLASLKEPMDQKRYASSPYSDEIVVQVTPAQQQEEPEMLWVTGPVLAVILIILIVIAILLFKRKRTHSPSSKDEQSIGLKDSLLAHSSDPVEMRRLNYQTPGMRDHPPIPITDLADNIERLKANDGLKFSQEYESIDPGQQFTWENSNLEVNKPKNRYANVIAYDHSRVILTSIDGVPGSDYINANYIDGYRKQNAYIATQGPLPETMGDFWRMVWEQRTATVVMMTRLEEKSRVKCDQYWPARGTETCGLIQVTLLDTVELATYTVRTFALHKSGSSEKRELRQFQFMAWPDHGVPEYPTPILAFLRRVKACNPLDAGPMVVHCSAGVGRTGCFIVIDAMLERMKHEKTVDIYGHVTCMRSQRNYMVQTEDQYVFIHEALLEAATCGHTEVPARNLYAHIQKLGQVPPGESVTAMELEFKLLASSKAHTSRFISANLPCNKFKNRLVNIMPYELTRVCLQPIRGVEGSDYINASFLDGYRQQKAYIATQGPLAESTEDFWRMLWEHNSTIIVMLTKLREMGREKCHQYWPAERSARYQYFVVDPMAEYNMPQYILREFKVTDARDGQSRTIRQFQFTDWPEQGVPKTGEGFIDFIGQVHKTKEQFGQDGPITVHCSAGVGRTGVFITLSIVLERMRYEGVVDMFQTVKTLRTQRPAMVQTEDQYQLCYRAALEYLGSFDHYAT
# [4] = molecular target: T2, Tyrosine-protein phosphatase non-receptor type 2 (Homo sapiens, UniProt P17706); assay: Inhibition of TCPTP (unknown origin)
# T2 sequence (P17706 whole entry): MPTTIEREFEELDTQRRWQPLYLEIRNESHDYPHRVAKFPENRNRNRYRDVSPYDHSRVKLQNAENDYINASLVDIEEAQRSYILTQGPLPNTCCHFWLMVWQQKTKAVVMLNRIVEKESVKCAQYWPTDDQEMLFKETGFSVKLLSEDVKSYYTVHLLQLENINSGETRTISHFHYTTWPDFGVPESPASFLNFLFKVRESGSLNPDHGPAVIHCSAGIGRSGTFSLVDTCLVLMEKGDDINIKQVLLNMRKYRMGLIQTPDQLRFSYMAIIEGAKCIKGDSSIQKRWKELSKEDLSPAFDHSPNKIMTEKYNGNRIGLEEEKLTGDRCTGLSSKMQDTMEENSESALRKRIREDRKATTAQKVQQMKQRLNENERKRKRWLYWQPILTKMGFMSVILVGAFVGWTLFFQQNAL
# [5] = molecular target: T3, Tyrosine-protein phosphatase non-receptor type 11 (Homo sapiens, UniProt Q06124); assay: Inhibition of SHP2 (unknown origin)
# T3 sequence (Q06124 whole entry): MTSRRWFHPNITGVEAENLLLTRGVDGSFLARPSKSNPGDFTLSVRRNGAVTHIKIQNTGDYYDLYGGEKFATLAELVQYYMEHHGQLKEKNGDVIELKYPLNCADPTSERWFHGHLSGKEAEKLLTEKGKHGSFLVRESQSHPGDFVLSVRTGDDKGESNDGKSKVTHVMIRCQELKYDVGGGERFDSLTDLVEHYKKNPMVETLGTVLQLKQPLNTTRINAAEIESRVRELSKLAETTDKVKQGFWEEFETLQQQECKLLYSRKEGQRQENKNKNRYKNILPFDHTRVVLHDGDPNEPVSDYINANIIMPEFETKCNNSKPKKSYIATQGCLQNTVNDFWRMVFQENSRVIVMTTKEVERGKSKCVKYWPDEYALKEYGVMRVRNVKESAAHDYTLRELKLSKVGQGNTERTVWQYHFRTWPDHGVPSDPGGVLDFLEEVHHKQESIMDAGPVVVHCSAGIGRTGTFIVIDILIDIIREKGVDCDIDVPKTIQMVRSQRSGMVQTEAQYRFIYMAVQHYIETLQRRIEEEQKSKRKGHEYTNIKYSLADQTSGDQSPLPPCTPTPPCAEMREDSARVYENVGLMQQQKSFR
Structure (SMILES),IC50 ([1]; read-out: IC50) [µM],IC50 [2],IC50 [3],IC50 [5],IC50 [1],IC50 ([4]; read-out: IC50) [µM],further results
O=C(OC1CS[S+]([O-])C1)c1cccc(Br)c1 (configuration not stated),28,Not Active,Not Active,Not Active,–,–,IC50 [4]: Not Active
O=C(OC1CSSC1)c1ccccc1,–,–,–,–,Not Active,–,–
O=C(OC1CS[S+]([O-])C1)c1cc(Br)ccc1Br (configuration not stated),4.54,Not Active,Not Active,Not Active,–,11.1,–
O=C(OC1CSS(=O)(=O)C1)c1cc2ccccc2[nH]1 (configuration not stated),–,–,–,–,Not Active,–,–
O=C(OC1CSSC1)c1cccc(Br)c1,–,–,–,–,Not Active,–,–
COc1ccc(C(=O)OC2CSSC2)c(OC)c1,–,–,–,–,Not Active,–,–
O=C(OC1CSS(=O)(=O)C1)c1ccccc1Br (configuration not stated),–,–,–,–,Not Active,–,–
O=C(OC1CSSC1)c1cc(Br)ccc1Br,25.6,–,Not Active,Not Active,–,20.4,IC50 ([2]; read-out: IC50): 10.9 µM
O=C(CCc1ccc(Br)cc1)OC1CSSC1,–,–,–,–,Not Active,–,–
O=C(OC1CSSC1)c1ccc(Br)cc1,11,Not Active,–,Not Active,–,34,IC50 ([3]; read-out: IC50): 34.6 µM
O=C(OC1CSSC1)c1ccc(F)cc1,–,–,–,–,Not Active,–,–
O=C(OC1CS[S+]([O-])C1)c1ccc(Br)cc1 (configuration not stated),–,–,–,–,Not Active,–,–
O=S1(=O)C[C@H](O)CS1 [BRUGUIESULFUROL],17.5,–,–,–,–,–,–
O=C(OC1CSS(=O)(=O)C1)c1ccc(Br)cc1 (configuration not stated),–,–,–,–,Not Active,–,–
O=C(OC1CSSC1)c1cc2ccccc2[nH]1,24.1,Not Active,Not Active,Not Active,–,35.8,–
O=C(Cc1ccc(Br)cc1)OC1CSS(=O)(=O)C1 (configuration not stated),–,–,–,–,Not Active,–,–
O=C(OC1CS[S+]([O-])C1)c1ccccc1I (configuration not stated),29.7,Not Active,Not Active,Not Active,–,36.8,–
O=C(OC1CS[S+]([O-])C1)c1ccc(I)cc1 (configuration not stated),22.4,Not Active,Not Active,Not Active,–,33,–
O=C(OC1CSSC1)c1ccc([N+](=O)[O-])cc1,22.6,Not Active,Not Active,Not Active,–,37.4,–
O=C(OC1CSSC1)c1ccc[nH]1,–,–,–,–,Not Active,–,–

Structure (SMILES),IC50 ([1]; read-out: IC50) [µM],IC50 [2],IC50 [3],IC50 [5],IC50 [1],IC50 ([4]; read-out: IC50) [µM],further results
O=C(OC1CSS(=O)(=O)C1)c1cc(Br)ccc1Br (configuration not stated),–,–,–,–,Not Active,–,–
O=C(OC1CSSC1)c1cc([N+](=O)[O-])cc([N+](=O)[O-])c1,14.8,–,Not Active,–,–,27.3,IC50 ([2]; read-out: IC50): 24.4 µM; IC50 ([5]; read-out: IC50): 13.8 µM
O=C(OC1CSSC1)c1ccco1,35.2,–,Not Active,–,–,75.4,IC50 ([2]; read-out: IC50): 15.8 µM; IC50 ([5]; read-out: IC50): 22.3 µM
O=C(OC1CSS(=O)(=O)C1)c1ccc(F)cc1 (configuration not stated),–,–,–,–,Not Active,–,–
O=C(Cc1ccc(Br)cc1)OC1CS[S+]([O-])C1 (configuration not stated),45,Not Active,Not Active,Not Active,–,–,IC50 [4]: Not Active
O=C(OC1CSSC1)c1ccoc1,78.2,–,Not Active,–,–,–,IC50 ([2]; read-out: IC50): 17.9 µM; IC50 [4]: Not Active; IC50 ([5]; read-out: IC50): 21.4 µM
O=C(OC1CS[S+]([O-])C1)c1ccc(F)cc1 (configuration not stated),–,–,–,–,Not Active,–,–
O=C(OC1CSSC1)c1ccc(Cl)cc1,–,–,–,–,Not Active,–,–
O=C(OC1CS[S+]([O-])C1)c1cc2ccccc2[nH]1 (configuration not stated),31.4,Not Active,Not Active,Not Active,–,52.6,–
O=C(OC1CSS(=O)(=O)C1)c1cccc(Br)c1 (configuration not stated),29,Not Active,Not Active,Not Active,–,–,IC50 [4]: Not Active
O=C(OC1CSSC1)c1ccccc1I,48.2,Not Active,–,Not Active,–,42.1,IC50 ([3]; read-out: IC50): 20.4 µM
O=C(OC1CS[S+]([O-])C1)c1ccccc1Br (configuration not stated),–,–,–,–,Not Active,–,–
O=C(OC1CSS(=O)(=O)C1)c1ccc(I)cc1 (configuration not stated),–,–,–,–,Not Active,–,–
O=C(OC1CSSC1)c1ccccc1Br,–,–,–,–,Not Active,–,–
O=C(OC1CSS(=O)(=O)C1)c1ccccc1I (configuration not stated),–,–,–,–,Not Active,–,–
O=C(OC1CSSC1)c1ccc(I)cc1,33.4,Not Active,Not Active,Not Active,–,34.1,–
NS(=O)(=O)c1ccc(C(=O)OC2CSSC2)cc1,24.9,–,Not Active,–,–,40.7,IC50 ([2]; read-out: IC50): 14 µM; IC50 ([5]; read-out: IC50): 13.4 µM
O=C(Cc1ccc(Br)cc1)OC1CSSC1,–,–,–,–,Not Active,–,–
CC(=O)OC1CSSC1,–,–,–,–,Not Active,–,–
